Measured values reported in US20170172909A1, “Method Of Counteracting The Impact Of Chronic Stress On Skin” (ELC MANAGEMENT LLC, priority 2015, published 2017).
Several values for one entry are separate records, joined by “and”; a condition that tells them apart may be missing. Equal entries are not always repeated.

Experiments:
[1] = test system: skin explants from the abdominal tissue; assay: General morphology of ex vivo skin explants, cortisol-induced premature senescence (Masson's trichrome); assay type: cell-based, human
Experimental: Thirty three skin explants from the abdominal tissue of a donor, of an average diameter of 10 mm (±1 mm) were prepared.
The formula with 0.1% cortisol was applied topically on days 2, 5, 6 and 7.
On day 0, the three explants from the batch BO were collected and cut in two parts. One half was fixed in buffered formalin, and the other half was frozen at −80° C. On day 9, three explants from all other batches were collected and processed in the same way.
Sections were then mounted on Superfrost® plus silanized glass slides. The microscopical observations were made using a Leica DMLB or Orthoplan microscope. Pictures were digitized with a numeric DP72 Olympus camera with CellD storing software.
The observation of the general morphology was realized after staining of paraffinized sections according to Masson's trichrome, Goldner variant.

p21 = p21 immunostaining of ex vivo skin explants; assay type: cell-based, human
Experimental: (§4) After fixation for 24 hours in buffered formalin, the samples were dehydrated and impregnated in paraffin using a Leica TP 1010 dehydration automat. The samples were then embedded using a Leica EG 1160 embedding station. 5-μm-thick sections were made using a Leica RM 2125 Minot-type microtome, and the sections were then mounted on Superfrost® histological glass slides.
(§5) The immunostaining was assessed by microscopical observation.
The evaluation of the p21 immunostained pictures was based on both the number of cells that were stained as well as the staining intensity in each cell.

progerin = assay: Progerin immunostaining of ex vivo skin explants; assay type: cell-based, human
Experimental: as §4, §5
Progerin staining intensity was measured in a similar way as for p21.

elastin = assay: Elastin release by HDFs (Elastin Elisa); assay type: cell-based, human; settings: 2.5 mg/ml, 72 hours
Experimental: (§1) HDFs, at passage 4, were plated in 96 well plates. After the cells reached confluency they were placed under starvation conditions for 48 hours. Cells then were treated with test materials in cell medium for 72 hours after which the medium was collected for analysis of elastin (Elastin Elisa assay, SOP D.33). Cell viability also was measured using the MTT assay (SOP D.29). Statistical analysis was performed with an ANOVA+Fisher LSD post hoc test. A p value of less than 0.05 was considered significant.
(§2) The results are presented as pg/ml elastin corrected for viability. The percent increase in elastin release is calculated as:
(§3) % increase=[Amount Elastinactive/Amount Elastincontrol]×100−100

fibroblasts from eyelid = assay: GlaSbox contractile forces on collagen lattices, with or without cortisol, eyelid fibroblasts; assay type: cell-based, human; settings: cortisol 250 ng/ml
Description: In this study, the GlaSbox® system was used to analyze the effect of cortisol, with and without test materials, on the contractile forces generated by fibroblasts populating collagen lattices. The GlaSbox® device differs from other collagen lattice systems in that it uses a fixed, non-floating collagen lattice where the diameter of the collagen lattice remains constant but electrodes measure the actual contractile forces exerted by the cells on the collagen lattice. Fibroblasts were obtained from eyelid and abdominal skin of Chinese female donors. The effect of Biobenefity and Albizia julibrissin on the contractile forces of fibroblasts originating from eyelid, with or without exposure to cortisol (250 ng/ml), were evaluated. Two fibroblast cell types, one originating from eyelid and the other one from abdominal skin tissue, were purchased from Tebu-Bio (Boechout, Belgium). These cell types were isolated from different donors, each being a person. The fibroblasts were embedded three-dimensionally in hydrated collagen gel lattices. […] The forces are expressed as arbitrary units. […] Data are expressed as mean±standard deviation. The measurement of contractile forces was analyzed by means of a variance analysis with two factors (group versus control and time). […]

[2] = test system: fibroblasts from abdominal skin; assay: GlaSbox contractile forces on collagen lattices, with or without cortisol, abdominal fibroblasts; assay type: cell-based, human; settings: cortisol 250 ng/ml
Description: In this study, the GlaSbox® system was used to analyze the effect of cortisol, with and without test materials, on the contractile forces generated by fibroblasts populating collagen lattices. The GlaSbox® device differs from other collagen lattice systems in that it uses a fixed, non-floating collagen lattice where the diameter of the collagen lattice remains constant but electrodes measure the actual contractile forces exerted by the cells on the collagen lattice.
Fibroblasts were obtained from eyelid and abdominal skin of Chinese female donors. The effect of Biobenefity and Albizia julibrissin on the contractile forces of fibroblasts originating from eyelid, with or without exposure to cortisol (250 ng/ml), were evaluated.
Two fibroblast cell types, one originating from eyelid and the other one from abdominal skin tissue, were purchased from Tebu-Bio (Boechout, Belgium). These cell types were isolated from different donors, each being a person. […] The forces are expressed as arbitrary units.
Each Glasbox® curve was fitted with GraphPad Prism® software to determine the area under the curve (AUC) and the maximum of contraction (Max). […] Data are expressed as mean±standard deviation. The measurement of contractile forces was analyzed by means of a variance analysis with two factors (group versus control and time). […]

[3] = test system: Human dermal fibroblasts (HDFs); assay: Free floating fibroblast-populated collagen lattice (FPCL) contraction; assay type: cell-based
Experimental: Human dermal fibroblasts (HDFs, passages 6-7) were maintained in Falcon 75 cm^2 tissue culture flasks in DMEM supplemented with 10% FBS. Cells were harvested from monolayer culture, and placed in 6-well culture plates (1×10^5 cells/well). Cells were pretreated with 25 μM hydrocortisone or with a combination of 25 μM hydrocortisone and different concentrations of test materials for 24 hours before being applied to free floating fibroblast populated collagen lattices.
Gels containing collagen HDFs were prepared as described by Tomasek, J. J., et al. (Fibroblast contraction occurs on release of tension in attached collagen lattices: dependency on an organized actin cytoskeleton and serum. Anat. Rec., 1992, March; 232(3):359-68), incorporated herein by reference in its entirety, with modifications as follows. Briefly, collagen solution (Corning, Rat tail, 354236), concentrated DMEM, 0.1N NaOH and FBS, were gently mixed at 4° C., giving a suspension at a final density of 5×10^5 cells and 3 mg/ml collagen. The collagen/cell suspension (2 ml total) was poured on 35 mm-uncoated dish and allowed to polymerize for 45 minutes at 37° C. Then lattices were released and gels were allowed to float in the medium. […]
Fibroblast contractility was assessed by measuring changes in the surface area of collagen I gels mediated by fibroblasts. […] Thereafter, lattice diameter was measured. […]

[4] = test system: fibroblasts from an abdominoplasty; assay: GlaSbox contractile forces of fibroblasts on collagen lattices (stimulation, Example 3); assay type: cell-based, human; settings: 2.5 ng/ml, 24 hours
Description: In this study, the GlaSbox® system was used to analyze the effect of cosmetic raw materials, TGFβ1, Taisoh Liquid B Jujube Extract (Ziziphus jujuba fruit), available from Ichimaru Pharcos, and Uplevity, available from Lipotec. TGFβ1, used in this study as a positive control, is known to play a role in cellular functions, including cell proliferation, differentiation, wound healing and matrix-related processes. Taisoh Liquid B Jujube Extract has been reported to stimulate wound healing. […]
Fibroblasts were embedded three-dimensionally in hydrated collagen gels composed of 6 volumes of 1.76× (DMEMc, NaHCO3, NaOH, antibiotics), 3 volumes rat tail type I collagen (2 mg/ml) and 1 volume of cellular suspension (8×10^5 cells/ml) using a modified version of the technique developed by Bell et al. (Production of a tissue-like structure by contraction of collagen lattices by human fibroblasts of different proliferative potential in vitro. Proc. Natl. Acad. Sci. USA 76, 1274-1278 (1979). The lattice mixture was poured into the rectangular culture plate of the GlaSbox® and polymerized in less than 30 minutes at 37° C. […] The forces were expressed as arbitrary units (AU) after 24 hours of measurement. […]

tropoelastin = assay: Tropoelastin synthesis by HDFs; assay type: cell-based, human; settings: 5 pg/ml
Experimental: as §1, §2, §3

fibrillin-1 = assay: Fibrillin-1 release by HDFs (sandwich ELISA); assay type: cell-based, human; settings: positive control, 100 ng/ml, 24 hours
Experimental: Fibrillins, glycoproteins secreted by fibroblasts, are essential for the formation of elastic fibers found in connective tissue. Test compounds Mitostime (extract of Laminaria digitata) and Milk Peptide Complex (MPC or whey protein, available from CLR, Germany) were evaluated for their capacity to stimulate the synthesis of fibrillin-1 in HDFs.
An aliquot of a selected fibroblast cell line (HDFs) was thawed, placed into culture, and allowed to establish good growth before passaging into a 24-well plate (5×10^4 cells/1 ml well). After overnight adhesion to the well, test compounds were added to the medium at three different concentrations and the cells were incubated for 24 hours. A positive control of 100 ng/ml TGFβ1, was included. The negative controls used were 0.1% BSA and 0.1% EtOH. After 24 hours, medium was harvested, centrifuged, and transferred to fibrillin-1 sandwich ELISA plates to determine the amount of fibrillin released.

[5] = day 9, with 0.1% cortisol, Biwa leaf, Biobenefity, Juvinity 0.5% w/v, IBR Dormin 0.1% w/v
[6] = 0.1% cortisol, day 9, versus untreated

`CC(C)=CCCC(C)=CCCC(C)=CCCC(C)=CCCC(C)O` (stereo not shown) [Juvinity, Geranylgeranyl-2-propanol] was tested, and the “General morphology of explants” value ([1]; day 9, absence of cortisol, Biwa leaf, Biobenefity, Juvinity 0.5% w/v, IBR Dormin 0.1% w/v in medium) was “altered morphology, with pycnotic nuclei and cellular spongiosis”, the “Effect on cortisol-induced morphology (epidermal thickness)” value ([1]; day 9, with topical 0.1% cortisol, Biwa leaf, Biobenefity, Juvinity 0.5% w/v, IBR Dormin 0.1% w/v) was “did not have any beneficial effect” and the “Effect on cortisol-induced increase in p21 staining intensity” value (p21; [5]) was “partially reduce”. For the same compound, the “Effect on cortisol-induced increase in progerin staining intensity” value (progerin; [5]) was “did not show a beneficial effect”.
With `O=C[C@H](O)[C@H](O)[C@H](O)CO` [Riboxyl, D-ribose] the “Increase in elastin synthesis versus untreated cells” value (elastin) was 66%.
`C[C@]12CCC(=O)C=C1CC[C@@H]1[C@@H]2[C@@H](O)C[C@@]2(C)[C@H]1CC[C@]2(O)C(=O)CO` [cortisol] was tested, and the “General morphology of explants” value ([1]; 0.1% cortisol topically during 7 days (day 2 to day 9)) was “moderate epidermal atrophy”, the “p21 staining intensity (semi-quantitative grading)” value (p21; [6]) was “from very weak to moderate” and the Progerin staining intensity (progerin; [6]) was “increased from weak to moderate”. The “Contractile forces (AUC and maximum contractile force)” value (fibroblasts from eyelid) was “significant decrease”, the “Contractile forces (AUC and maximum contractile force)” value [2] was “significant decrease” and the “Decrease of lattice contraction versus untreated lattices” value ([3]; 25 μM, listed as hydrocortisone) was 11.8% and 9%. The “Decrease of lattice contraction versus untreated lattices” value ([3]; 50 μM) was 18%.
“TGFβ1: Transforming Growth Factor β, secreted protein used as a positive control” was tested, and the “Increase of contractile forces (AUC)” value [4] was 25.5%, the “Increase of maximum contraction” value [4] was 26.0% and the “Increase in tropoelastin synthesis versus untreated cells” value (tropoelastin) was 175%. The “Fibrillin release at baseline level” value (fibrillin-1) was “stimulate the fibrillin release”.
